pIC50: −log10 of the molar value.
Biological target: Proto-oncogene tyrosine-protein kinase Src (Homo sapiens, UniProt P12931)
Test: Concentration of compound required for inhibiting the binding of the fluorescent probe to the c-Src tyrosine kinase SH2 domain by 50%

Sequence of Proto-oncogene tyrosine-protein kinase Src (P12931 2-536 limits assumed): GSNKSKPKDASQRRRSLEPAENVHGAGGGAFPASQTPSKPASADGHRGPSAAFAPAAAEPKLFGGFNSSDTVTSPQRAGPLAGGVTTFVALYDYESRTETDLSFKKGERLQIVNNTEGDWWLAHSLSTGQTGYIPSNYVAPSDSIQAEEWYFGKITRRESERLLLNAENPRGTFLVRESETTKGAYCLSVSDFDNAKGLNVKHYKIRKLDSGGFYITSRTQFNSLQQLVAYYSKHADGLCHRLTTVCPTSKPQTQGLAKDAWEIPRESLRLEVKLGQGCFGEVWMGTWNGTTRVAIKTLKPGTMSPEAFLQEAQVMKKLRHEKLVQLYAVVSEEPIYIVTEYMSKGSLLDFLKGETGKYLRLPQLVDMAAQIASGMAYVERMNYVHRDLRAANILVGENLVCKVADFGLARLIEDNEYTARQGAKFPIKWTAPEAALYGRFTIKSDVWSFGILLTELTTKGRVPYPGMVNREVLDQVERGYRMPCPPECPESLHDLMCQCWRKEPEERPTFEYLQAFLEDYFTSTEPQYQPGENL

SMILES | pIC50
CC(=O)N[C@@H](Cc1ccc(OP(=O)(O)O)cc1)C(=O)N[C@@H](CCC(=O)O)C(=O)N[C@H](CC(=O)O)CC(=O)N[C@H](C(=O)O)C(C)C | 4.59
CC[C@H](C)[C@H](NC(=O)CC[C@H](NC(=O)[C@H](CCC(=O)O)NC(=O)[C@H](Cc1ccc(OP(=O)(O)O)cc1)NC(C)=O)C(=O)O)C(=O)O | 4.09
CC[C@@H](C)[C@H](NC(=O)[C@H](CCC(=O)O)NC(=O)CC[C@H](NC(=O)[C@H](Cc1ccc(OP(=O)(O)O)cc1)NC(C)=O)C(=O)O)C(=O)O | 4.16
CC[C@@H](C)[C@H](NC(=O)[C@H](CCC(=O)O)NC(=O)C[C@H](NC(=O)[C@H](Cc1ccc(OP(=O)(O)O)cc1)NC(C)=O)C(=O)O)C(=O)O | 4.12
CC[C@H](C)[C@H](NC(=O)C[C@H](NC(=O)[C@H](CCC(=O)O)NC(=O)[C@H](Cc1ccc(OP(=O)(O)O)cc1)NC(C)=O)C(=O)O)C(=O)O | 4.04
CC[C@@H](C)[C@H](NC(=O)[C@H](CCC(=O)O)NC(=O)C[C@H](NC(=O)[C@@H](N)Cc1ccc(OP(=O)(O)O)cc1)C(=O)O)C(=O)O | < 4.00
CC(C)[C@H](NC(=O)C[C@@H](CC(=O)O)NC(=O)[C@H](CCC(=O)O)NC(=O)[C@@H](N)Cc1ccc(OP(=O)(O)O)cc1)C(=O)O | 4.12
CC(=O)N[C@@H](Cc1ccc(OP(=O)(O)O)cc1)C(=O)N[C@@H](C(=O)O)C(=O)N[C@H](CCC(=O)O)CC(=O)N[C@H](C(=O)O)C(C)C | 4.46
CC(C)[C@H](NC(=O)C[C@@H](CCC(=O)O)NC(=O)C(NC(=O)[C@@H](N)Cc1ccc(OP(=O)(O)O)cc1)C(=O)O)C(=O)O (single isomer, unassigned) | 4.08

Other lines, results leading:

pIC50 | SMILES
5.96 | CC[C@H](C)[C@H](NC(=O)CC[C@@H]1NC(=O)[C@H](CCC(=O)O)NC(=O)[C@H](Cc2ccc(OP(=O)(O)O)cc2)NC1=O)C(=O)O
5.48 | CC[C@H](C)[C@H](NC(=O)[C@H](CCC(=O)O)NC(=O)[C@@H]1CCC(=O)N[C@@H](Cc2ccc(OP(=O)(O)O)cc2)C(=O)N1)C(=O)O
5.23 | CC[C@H](C)[C@H](NC(=O)[C@@H]1CCC(=O)N[C@@H](Cc2ccc(OP(=O)(O)O)cc2)C(=O)N[C@@H](CCC(=O)O)C(=O)N1)C(=O)O
5.82 | CC[C@H](C)[C@H](NC(=O)C[C@@H]1NC(=O)[C@H](CCC(=O)O)NC(=O)[C@H](Cc2ccc(OP(=O)(O)O)cc2)NC1=O)C(=O)O
5.92 | CC[C@@H](C)[C@H](NC(=O)[C@H](CCC(=O)O)NC(=O)CC[C@@H]1NC(=O)[C@H](Cc2ccc(OP(=O)(O)O)cc2)NC1=O)C(=O)O
< 4.00 | CC[C@@H](C)[C@H](NC(=O)[C@H](CCC(=O)O)NC(=O)CC[C@H](NC(=O)[C@@H](N)Cc1ccc(OP(=O)(O)O)cc1)C(=O)O)C(=O)O
< 4.00 | CC[C@H](C)[C@H](NC(=O)CC[C@H](NC(=O)[C@H](CCC(=O)O)NC(=O)[C@@H](N)Cc1ccc(OP(=O)(O)O)cc1)C(=O)O)C(=O)O
4.92 | CC[C@@H](C)[C@H](NC(=O)[C@H](CCC(=O)O)NC(=O)C[C@@H]1NC(=O)[C@H](Cc2ccc(OP(=O)(O)O)cc2)NC1=O)C(=O)O
< 4.00 | CC[C@H](C)[C@H](NC(=O)C[C@H](NC(=O)[C@H](CCC(=O)O)NC(=O)[C@@H](N)Cc1ccc(OP(=O)(O)O)cc1)C(=O)O)C(=O)O

Source: ChEMBL document CHEMBL1148323, “Conformationally constrained peptide analogues of pTyr-Glu-Glu-Ile as inhibitors of the Src SH2 domain binding” (J Med Chem, 2004)
